Experimental data taken from patent publication US20250051275A1, “PYRROLE DERIVATIVE OR PHARMACEUTICALLY OR SITOLOGICALLY ACCEPTABLE SALTS THEREOF, AND COMPOSITION FOR PREVENTION, AMELIORATION OR TREATMENT OF GASTROINTESTINAL DISORDERS COMPRISING SAME AS ACTIVE INGREDIENT” (HANA PHARM CO., LTD., priority 2021, published 2025).
Read-outs that look alike come from different tables or passages of the source.

Tests used:
[1] = Storage stability (related substance identification test); format: physicochemical; conditions: for storage stability: stored at −2 to 8° C., in % (unit assumed)
Description: An attempt was made to evaluate the storage stability over time of the compound of Example 7 of the present invention and the compound of Comparative Example 1 (which is the deuterium-unsubstituted form of the compound of Example 7) depending on the presence of deuterium substitution.

[2] = Oral bioavailability in beagle dogs; format: in vivo; conditions: dog, plasma; for AUC(0-t) / half-life / Cmax / Tmax: mean n=3; for bioavailability: po, read-out: BA (bioavailability)
Method: To evaluate oral bioavailability, Example 7 was administered intravenously or orally to beagle dogs.
For the intravenous administration group, blood samples were obtained from peripheral veins 1 minute, 5 minutes, 15 minutes, 30 minutes, 1 hour, 2 hours, 4 hours, 8 hours, and 24 hours after drug administration. For the oral administration group, blood samples were obtained from peripheral veins 15 minutes, 30 minutes, 1 hour, 2 hours, 4 hours, 6 hours, 8 hours, 12 hours, and 24 hours after drug administration. Blood samples collected at different times were treated with EDTA and centrifuged (2 to 8° C., 3,200 g, 10 minutes) to separate plasma.
The amount of administered compound into the plasma sample was quantified by using LC-MS/MS. Pharmacokinetic parameters were obtained by using a non-compartmental model in Phoenix WinNonlin 6.3 software.
‘AUC0-last’ indicates the area under the time curve, ‘Cmax’ indicates the highest plasma concentration, ‘Tmax’ indicates the time to reach the highest plasma concentration, ‘T1/2’ indicates the half-life, and ‘BA’ indicates the bioavailability.

[3] = test system: human gastric cancer cells (AGS Cells); assay: MTS assay, inhibition of proliferation of human gastric cancer cells (AGS Cells); format: cell-based; conditions: Homo sapiens, 48 hours
Method: To examine the effect of inhibiting the proliferation of the compounds indicated in the examples of the present invention on human gastric cancer cells (AGS Cells), MTS Assay experiments were in vitro performed. AGS cells were cultured in a 5% CO2 incubator at 37° C. by using RPMI 1640 medium containing 1% penicillin-streptomycin and 10% fetal bovine serum. The cells in culture were separated with using 0.25% Trypsin-0.02% EDTA every 3 to 4 days and subcultured.
For the experiment, the cultured cells were treated with 0.25% Trypsin-0.02% EDTA solution, the suspended cells were centrifuged at 1,200 rpm for 5 minutes, the supernatant was discarded, a culture medium was added thereto, and a cell suspension was made with the culture medium. Using a hemocytometer, 10,000 cells per well were dispensed into 96-well plates and cultured. After 24 hours, when the cells attached to the plate, the culture medium was discarded, and the cells were treated with new culture media prepared by concentration (test concentrations: 500 μm, 250 μm, 125 μm, 63 μm, 31 μm, 16 μm, 8 μm, 4 μm, and 2 μm) and cultured in a CO2 incubator for 48 hours. After treating with an MTS solution, the cells were incubated in a CO2 incubator for 1 hour, and the absorbance was measured at 490 nm by using a microplate reader device. The cell proliferation inhibition rate was expressed as IC50, which is 50% inhibition of cell proliferation, using GraphPad Prism 5.
In Table 2 below, the IC50 value is indicated as “+++” for 0 to 50 μM, “++” for 51 to 100 μM, and “+” for 101 to 400 μM.

[4] = molecular target: proton pump (H+/K+-ATPase) (Sus scrofa (Pig), UniProt P19156); assay: Inhibitory activity on proton pump (H+/K+-ATPase) activity; format: biochemical; conditions: porcine gastric mucosal microsomes, 5 mM KCl, pH 6.4
Method: The compounds indicated in the above examples were tested for their inhibitory activity on proton pump (H+/K+-ATPase) activity as follows by applying the method disclosed in the literature. According to the methods of Nobuyuki Takahashi and Yukinori Take [J Pharmacol Exp Ther. 2018 February; 364(2):275-286], the gastric mucosal microsome fraction was isolated from the porcine stomach. The stomach isolated from the pig was washed first with tap water, only the fundus was cut, and then washed (a second time) with cold PBS. The gastric mucosa was separated by scraping, homogenized with 250 mM sucrose solution, and centrifuged at 20,000 g at 4° C. for 30 minutes. Only the supernatant was centrifuged at 115,000 g at 4° C. for 30 minutes, and the precipitate was suspended in 250 mM sucrose solution, added to cover with 7% Ficoll solution, and centrifuged at 135,000 g at 4° C. for 60 minutes. The microsome fraction formed at the interface was recovered and suspended in 250 mM sucrose solution, and centrifuged at 135,000 g, 4° C. for 60 minutes, and the precipitate was dissolved in 0.9% NaCl. The isolated gastric mucosal microsome fraction was quantified by using the Bicinchoninic Acid (BCA) kit (Thermo).
60 μl of enzyme reaction solution (a test compound at a given concentration, […] of gastric mucosal microsomes, 3 mM of MgSO4, 5 mM of KCl, 40 mM of Tris-HCl pH 6.4, and 0.5 mM of adenosine triphosphate) was added to each well of a 96-well plate and reacted at 37° C. for 60 minutes, and 30 μl of 10% SIDS was added to stop the enzyme reaction. 200 μl of detection solution (in which 10% L-ascorbic acid with pH 5.0 was mixed with 35 mM of ammonium molybdate tetrahydrate/15 mM of zinc acetate with pH 5.0 at the ratio of 4:1) was added and reacted at 37° C. for 30 minutes, and the absorbance value was measured at 750 nm by using a microplate reader (MULTISKAN GO, Thermo). The inhibition rate of proton pump activity was expressed as I050, which is 50% inhibition of enzyme activity, by using GraphPad Prism 5. In Table 1 below, an I050 value of 100 nM or less is indicated by +++, an I050 value of 101 to 200 nM is indicated by ++, and an I050 value of above 200 nM is indicated by +.

Chain of proton pump (H+/K+-ATPase) (P19156 2-1034): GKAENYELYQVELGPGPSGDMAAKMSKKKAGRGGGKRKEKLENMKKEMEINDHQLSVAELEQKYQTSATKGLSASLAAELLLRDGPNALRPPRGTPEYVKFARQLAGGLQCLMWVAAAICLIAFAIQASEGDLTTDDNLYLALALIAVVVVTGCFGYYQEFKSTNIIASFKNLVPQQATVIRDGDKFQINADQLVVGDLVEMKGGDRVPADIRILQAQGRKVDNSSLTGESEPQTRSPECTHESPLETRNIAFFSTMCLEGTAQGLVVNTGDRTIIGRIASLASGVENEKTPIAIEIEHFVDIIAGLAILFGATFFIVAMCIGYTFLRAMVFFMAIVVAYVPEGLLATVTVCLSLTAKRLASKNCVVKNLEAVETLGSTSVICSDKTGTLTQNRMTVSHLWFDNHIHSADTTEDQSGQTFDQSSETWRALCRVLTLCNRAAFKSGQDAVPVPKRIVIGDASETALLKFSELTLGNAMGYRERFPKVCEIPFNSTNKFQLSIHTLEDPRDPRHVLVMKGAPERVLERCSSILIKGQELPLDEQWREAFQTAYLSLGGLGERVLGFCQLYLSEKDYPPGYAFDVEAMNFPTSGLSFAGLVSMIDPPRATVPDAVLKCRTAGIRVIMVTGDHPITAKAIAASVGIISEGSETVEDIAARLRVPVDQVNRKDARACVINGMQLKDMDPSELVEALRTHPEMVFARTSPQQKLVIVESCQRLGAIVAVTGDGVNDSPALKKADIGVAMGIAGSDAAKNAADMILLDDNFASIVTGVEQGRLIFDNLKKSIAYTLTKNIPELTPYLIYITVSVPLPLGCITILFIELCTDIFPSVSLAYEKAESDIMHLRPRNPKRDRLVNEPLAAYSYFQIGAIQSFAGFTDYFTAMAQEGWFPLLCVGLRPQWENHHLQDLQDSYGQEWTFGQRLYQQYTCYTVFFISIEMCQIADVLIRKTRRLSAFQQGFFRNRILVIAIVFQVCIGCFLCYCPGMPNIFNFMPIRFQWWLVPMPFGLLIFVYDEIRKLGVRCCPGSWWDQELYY
Chain of proton pump (H+/K+-ATPase) (P18434 whole entry partner): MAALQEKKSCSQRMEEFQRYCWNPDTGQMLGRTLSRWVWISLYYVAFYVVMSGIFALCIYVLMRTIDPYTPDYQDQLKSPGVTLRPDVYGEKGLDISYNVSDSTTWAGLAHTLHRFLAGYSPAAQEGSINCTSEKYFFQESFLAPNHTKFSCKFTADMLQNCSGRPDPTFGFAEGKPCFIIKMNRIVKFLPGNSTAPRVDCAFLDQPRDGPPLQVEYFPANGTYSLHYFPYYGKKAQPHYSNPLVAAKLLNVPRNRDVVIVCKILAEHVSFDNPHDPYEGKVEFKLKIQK

With `[2H]C([2H])([2H])NCc1cc(-c2ccccc2F)n(S(=O)(=O)c2ccc(F)cc2)c1` [Example 7, N-((5-(2-fluorophenyl)-1-((4-fluorophenyl)sulfonyl)-1H-pyrrol-3-yl)methyl)methan-d3-amine] the “storage stability, Results” value ([1]; stored at −2 to 8° C. for 3 months) was “Stable”, the storage stability ([1]; 1st week) was 98.33 and the storage stability ([1]; 2nd week) was 98.11. It also gave a storage stability ([1]; 3 months) of 98.9, a storage stability ([1]; 3rd week) of 98.11 and a storage stability ([1]; 4th week) of 98.20. It also gave a storage stability ([1]; Initial) of 98.38, an AUC(0-t) ([2]; intravenous 0.2 mg/kg) of 423 ng·h/mL and a half-life ([2]; intravenous 0.2 mg/kg) of 214 min. For the same compound, the AUC(0-t) ([2]; oral 2 mg/kg (1 mg/ml)) was 6940 ng·h/mL, the Cmax ([2]; oral 2 mg/kg (1 mg/ml)) was 632 ng/mL and the Tmax ([2]; oral 2 mg/kg (1 mg/ml)) was 1.53 h. It also gave a half-life ([2]; oral 2 mg/kg (1 mg/ml)) of 333 min, an AUC(0-t) ([2]; oral 6 mg/kg (3 mg/ml)) of 15100 ng·h/mL and a Cmax ([2]; oral 6 mg/kg (3 mg/ml)) of 1120 ng/mL. The Tmax ([2]; oral 6 mg/kg (3 mg/ml)) was 3.67 h, the half-life ([2]; oral 6 mg/kg (3 mg/ml)) was 449 min and the AUC(0-t) ([2]; oral 20 mg/kg (10 mg/ml)) was 49300 ng·h/mL. The Cmax ([2]; oral 20 mg/kg (10 mg/ml)) was 3350 ng/mL, the Tmax ([2]; oral 20 mg/kg (10 mg/ml)) was 3.33 h and the half-life ([2]; oral 20 mg/kg (10 mg/ml)) was 1100 min. For the same compound, the bioavailability ([2]; 2 mg/kg, oral 2 mg/kg (1 mg/ml)) was no less than 100%, the bioavailability ([2]; 6 mg/kg, oral 6 mg/kg (3 mg/ml)) was no less than 100% and the bioavailability ([2]; 20 mg/kg, oral 20 mg/kg (10 mg/ml)) was no less than 100%. It also gave an IC50 ([3]; read-out: Proliferation inhibitory effect of gastric cancer cells (IC50)) of 35.3 µM, an IC50 ([3]; read-out: Proliferation inhibitory effect of gastric cancer cells (IC50, μM), class symbol) of less than 50 µM and an IC50 ([4]; read-out: Proton pump inhibitory activity (IC50)) of 25 nM. For the same compound, the IC50 ([4]; read-out: Proton pump inhibitory activity (IC50, nM), class symbol) was no more than 100 nM.
